pIC50: −log10 of the molar value. Values after ≈ are worked out from the molar mass of the structure shown.
Tests used:
[1] = biological target: T1, AglH (Methanocaldococcus jannaschii, UniProt Q58513); assay type: biochemical; settings: read-out: IC50 AglH; Methanococcus jannaschii enzyme; n = 3
T1 sequence (Q58513 1-301): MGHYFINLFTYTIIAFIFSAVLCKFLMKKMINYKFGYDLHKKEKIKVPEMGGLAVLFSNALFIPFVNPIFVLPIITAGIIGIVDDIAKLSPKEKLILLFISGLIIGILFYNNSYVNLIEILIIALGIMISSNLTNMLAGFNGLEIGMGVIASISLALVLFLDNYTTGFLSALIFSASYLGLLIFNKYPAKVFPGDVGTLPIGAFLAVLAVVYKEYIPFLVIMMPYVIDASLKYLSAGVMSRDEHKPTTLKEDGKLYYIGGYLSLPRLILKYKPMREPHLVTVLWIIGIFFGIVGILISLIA

[2] = test system: MraY; settings: read-out: IC50 MraY
[3] = biological target: T2, human dolichyl-phosphate N-acetylglucosaminephosphotransferase 1 (DPAGT1) (Homo sapiens, UniProt Q9H3H5); assay type: biochemical; settings: read-out: IC50 DPAGT1; Human enzyme; n = 3
T2 sequence (Q9H3H5 1-408): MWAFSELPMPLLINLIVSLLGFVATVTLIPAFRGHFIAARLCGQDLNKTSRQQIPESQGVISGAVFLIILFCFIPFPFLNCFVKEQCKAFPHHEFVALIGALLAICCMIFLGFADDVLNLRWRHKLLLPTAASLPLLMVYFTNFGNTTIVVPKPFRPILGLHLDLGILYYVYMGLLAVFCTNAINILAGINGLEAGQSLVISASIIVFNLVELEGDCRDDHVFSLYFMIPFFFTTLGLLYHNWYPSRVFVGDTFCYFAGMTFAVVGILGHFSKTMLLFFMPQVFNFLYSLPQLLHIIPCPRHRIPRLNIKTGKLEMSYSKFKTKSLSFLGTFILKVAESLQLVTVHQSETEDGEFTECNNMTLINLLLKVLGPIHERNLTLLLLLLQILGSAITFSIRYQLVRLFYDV

[4] = test system: Bacillus cereus (ATCC1479); assay: Antibacterial activity; assay type: cell-based
[5] = Water-solubility; assay type: physicochemical
[6] = test system: Mycobacterium tuberculosis (H37Rv); assay: Antibacterial activity; assay type: cell-based
[7] = test system: Mycobacterium smegmatis (ATCC607); assay: Antibacterial activity; assay type: cell-based
[8] = test system: Streptococcus salivarius (ATCC7752); assay: Antibacterial activity; assay type: cell-based
[9] = test system: healthy (normal) and cancer cell lines; settings: read-out: IC50 (rapid cytotoxic activity); within 24 h; ref 4a; cited from earlier work

Row | Compound | pIC50 [1] | pIC50 [2] | pIC50 [3] | MIC [4] | solubility [5] | MIC [6] | MIC [7] | MIC [8] | pIC50 [9]
1 | CC(=O)N[C@H]1[C@@H](O[C@@H]2O[C@H](C[C@@H](O)[C@H]3O[C@@H](n4ccc(=O)[nH]c4=O)[C@H](O)[C@@H]3O)[C@H](O)[C@H](O)[C@H]2NC(=O)/C=C/CCCCCCCCCC(C)C)O[C@H](CO)[C@@H](O)[C@@H]1O [TN-V (natural), tunicamycin V, reference compound] | 4.88 | 5.54 | 5.82 | – | – | – | – | – | –
2 | CC(=O)N[C@H]1[C@@H](O[C@@H]2O[C@H](C[C@@H](O)[C@H]3O[C@@H](n4ccc(=O)[nH]c4=O)[C@H](O)[C@@H]3O)[C@H](O)[C@H](O)[C@H]2NC(=O)/C=C/CCCCCCCCCC(C)C)O[C@H](CO)[C@@H](O)[C@@H]1O [TN-V (1, synthetic), tunicamycin V] | 4.89 | 5.60 | 5.82 | 0.4 µg/mL (≈ 0.481 µM) | < 200 µg/mL | 6.3 µg/mL (≈ 7.58 µM) | 6.3 µg/mL (≈ 7.58 µM) | 25.0 µg/mL (≈ 30.1 µM) | 5.60 to 6.30

— article PMC9329268 (Angewandte Chemie (International ed. in English), 2022)
